Reference: patent publication US4673747A, “Aminoalkylphenoxy derivatives” (Ikeda Mohando Co., Ltd., priority 1984, dated 1987)
Read-outs that look alike come from different tables or passages of the source.

Tests used:
[1] = test system: Gastric acid secretion induced by histamine; test: Inhibition effect on gastric acid secretion induced by histamine in pylorus ligated rat (subcutaneous); assay type: in vivo, rat (male Wistar); details: read-out: Secretion of Gastric Acid in Rat, Inhibition Rate (%)
Experimental: A male Wistar rat having a body weight of about 160 g and which had not fed for 24 hours was anesthetized by an intraperitonea dose of 1.2 g/kg of uretane. After ligating of pylorus and esophagus, the gaster anterior was incised and fitted with a double polyethylene cannula. The wall of the stomach was rinsed with 5 ml of saline at 30 minute intervals, and the quantities of gastric acid contained in each rinsing solution were measured by titration.
The basal acid secretion was initially measured three times, and then 0.2 mg/kg or 0.5 mg/kg of each of the compounds of this invention was administered subcutaneously and 3 mg/kg of histamine was administered subcutaneously after the lapse of an additional 30 minutes.
The quantity of gastric acid secreated after the operation was measured continuously for 3 hours. Within that measurement interval, three time points at which the increase in acid secretion reached a maximum level were selected, and the average quantity of gastric acid secreted at those time points was taken as the increase in acid secretion, which was compared with the increase in acid secretion of the control group to calculate the percent inhibition for secretion of gastric acid. [formula] (The result was shown as the average value of five runs.)

[2] = Acute toxicity test on mice dosed orally; design: species or system mouse (male ddy); details: mouse, in vivo, po, P.O., 14 days observation, read-out: Median lethal dose (LD50)
Experimental: Male ddy mice each having a body weight of about 22 g and which had not eaten for 8 hours were orally dosed with the test samples, and the general symptoms and fatalities were observed from the time immediately following the administration to 14 days after the administration.
The median lethal dose (LD50) was calculated in accordance with the Litchfield and Wilcoxon Method.

[3] = test system: Gastric acid secretion induced by histamine; test: Inhibitory effect of intraduodenally administered compounds on gastric acid secretion induced by histamine in rat; assay type: in vivo, rat (male Wistar); details: for ED50: 0.5 h, read-out: Median effective dose (ED50), Gastric Acid Secretion; for Efficacy Ratio relative to Cimetidine (Cimetidine = 1): from ED50; for ED50 value: times as effective as Cimetidine (activity ratio): text discussing Table 2
Histamine H2-Receptor = target: T1, Histamine H2-Receptor (Cavia porcellus, UniProt P47747); design: species or system guinea pig (male Hartley); details: isolated guinea pig atrium; negative logarithm of molar concentration; heart beats, histamine dose-response; read-out: Antagonistic Action against Histamine H2-Receptor (pA2) Determined by Using Atrium isolated from Guinea Pig (converted)
T1 construct: from tissue; host or cells: isolated atrium of male Hartley guinea pig
Experimental: A male Hartley guinea pig having a body weight of about 400 g was killed by cervical dislocation, and the artrium thereof was isolated and was suspended in an organ bath containing 50 ml of a modified Ringer solution and subjected to a tension of 1 g. The number of heart beats under such condition was recorded using a polygraph.
Initially, from 1×10^-7 mol to 3×10^-4 mol of histamine was allowed to act accumulatively to depict the curve of the dosage-reaction relationship. Likewise, the curve of the dosage of histamine-reaction relationship was depicted in the presence of 5×10^-7 mol to 1×10^-6 mol of the test sample which was injected 3 minutes before. The negative logarithm (pA2) of the molar concentration of the test sample required for moving the curve obtained by single administration of histamine parallel to the right side by a two-times concentration was calculated.

[4] = 0.5 mg/kg SC, histamine 3 mg/kg SC, average of five runs, * p<0.05, ** p<0.01 vs control group
[5] = intraduodenal, 30 minutes before SC histamine, rat

T1 sequence (P47747 whole entry): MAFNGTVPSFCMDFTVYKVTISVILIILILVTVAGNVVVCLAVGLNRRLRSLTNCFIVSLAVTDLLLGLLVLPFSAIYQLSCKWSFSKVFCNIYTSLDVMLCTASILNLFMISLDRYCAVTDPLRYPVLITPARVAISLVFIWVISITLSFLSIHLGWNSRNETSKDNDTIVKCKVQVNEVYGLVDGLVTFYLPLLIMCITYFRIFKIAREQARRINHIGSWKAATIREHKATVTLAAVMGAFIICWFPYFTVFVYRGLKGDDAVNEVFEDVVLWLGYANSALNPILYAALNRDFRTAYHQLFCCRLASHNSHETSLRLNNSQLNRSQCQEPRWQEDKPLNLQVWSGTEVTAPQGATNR

SMILES | inhibition in vivo at 0.5 mg/kg [1, 4] [%] | LD50 at 336 h [2] [mg/kg] | ED50 [3, 5] [mg/kg] | Efficacy Ratio relative to Cimetidine (Cimetidine = 1) ([3]; intraduodenal, rat) | Kb (Histamine H2-Receptor) [nM] | ED50 value: times as effective as Cimetidine (activity ratio) ([3]; intraduodenal, rat) | inhibition in vivo at 0.2 mg/kg ([1]; 0.2 mg/kg SC, histamine 3 mg/kg SC, average of five runs, * p<0.05, ** p<0.01 vs control group) [%] | inhibition in vivo at 0.5 mg/kg ([1]; sc) [%] | ED50 ([3]; Rattus norvegicus) [mg/kg]
CNc1n[nH]c(=O)nc1NC/C=C\COc1cccc(CN2CCCCC2)c1 [Ex. 10, 6-methylamino-5-[4-<3-(1-piperidinomethyl)phenoxy>-cis-2-butenylamino]-1,2,4-triazin-3-one] | 103 | > 1500 | 8 | 0.9 | 219 | – | – | – | –
CNc1n[s+]([O-])nc1NC/C=C\COc1cccc(CN2CCCCC2)c1 (stereo not drawn) [Ex. 16, 3-methylamino-4-[4-<3-(1-piperidinomethyl)phenoxy>-cis-2-butenylamino]-1,2,5-thiadiazole-1-oxide] | 98 | > 1500 | 0.04 | 180.0 | 2400 | ~180 times | – | – | –
Nc1n[nH]c(=O)nc1NC/C=C\COc1cccc(CN2CCCCC2)c1 [Ex. 9, 6-amino-5-[4-<3-(1-piperidinomethyl)phenoxy>-cis-2-butenylamino]-1,2,4-triazin-3-one] | 96 | 1200 | – | – | 186 | – | – | – | –
Nc1c(NC/C=C\COc2cccc(CN3CCCCC3)c2)c(=O)c1=O [Ex. 2, 1-amino-2-[4-<3-(1-piperidinomethyl)phenoxy>-cis-2-butenylamino]-1-cyclobuten-3,4-dione] | 98 | > 1500 | 0.046 | 156.5 | 63.1 | about 157 times | – | – | –
CNc1c(NC/C=C\COc2cccc(CN3CCCCC3)c2)c(=O)c1=O [Ex. 3, 1-methylamino-2-[4-<3-(1-piperidinomethyl)phenoxy>-cis-2-butenylamino]-cyclobuten-3,4-dione] | 79 | > 1500 | 0.036 | 200.0 | 309 | ~200 times | – | – | –
Nc1cc(NC/C=C\COc2cccc(CN3CCCCC3)c2)nc(=O)[nH]1 [Ex. 13, 4-amino-6-[4-<3-(1-piperidinomethyl)phenoxy>-cis-2-butenylamino]-(1H)-pyrimidin-2-one] | 91 | > 1500 | 0.52 | 13.8 | 83.2 | – | – | – | –
CC1CCN(Cc2cccc(OC/C=C\CNc3c(N)c(=O)c3=O)c2)CC1 [Ex. 35, 1-amino-2-[4-{3-<1-(4-methylpiperidino)methyl>phenoxy}-cis-2-butenylamino]-1-cyclobutene-3,4-dione] | – | – | 0.38 | 18.9 | 263 | – | 98 | – | –
CN/C(=N/CCSCc1nc[nH]c1C)NC#N [Cimetidine, reference compound] | – | 3300 | – | – | – | – | – | 41 | 7.2
